This is an account of results in patent US20160115141A1, “CARBOXYLIC ACID DERIVATIVES FOR TREATMENT OF OXIDATIVE STRESS DISORDERS” (EDISON PHARMACEUTICALS, INC., priority 2013, published 2016).

Each structure is given as a SMILES string.

This assay deals with FRDA fibroblasts stressed by addition of L-buthionine-(S,R)-sulfoximine (BSO). The assay can be described thus: Rescue of BSO-stressed human dermal fibroblasts from Friedreich's Ataxia patients (Calcein AM viability). The assay is classed as cell-based. To be noted: FRDA fibroblasts GM04078, 1 mM BSO, 48 h, average, compounds of the invention. Here is the method: An initial screen was performed to identify compounds effective for the amelioration of redox disorders. Test samples, 4 reference compounds (idebenone, decylubiquinone, Trolox and alpha-tocopherol), and solvent controls were tested for their ability to rescue FRDA fibroblasts stressed by addition of L-buthionine-(S,R)-sulfoximine (BSO), as described in Jauslin et al., Hum. Mol. Genet. 11(24):3055 (2002), Jauslin et al., FASEB J. 17:1972-4 (2003), and International Patent Application WO 2004/003565. […] This specific BSO-mediated cell death can be prevented by administration of antioxidants or molecules involved in the antioxidant pathway, such as alpha-tocopherol, selenium, or small molecule glutathione peroxidase mimetics. However, antioxidants differ in their potency, i.e. the concentration at which they are able to rescue BSO-stressed FRDA fibroblasts.
MEM (a medium enriched in amino acids and vitamins, catalog no. 1-31F24-I) and Medium 199 (M199, catalog no. 1-21F22-I) with Earle's Balanced Salts, without phenol red, were purchased from Bioconcept. Fetal Calf Serum was obtained from PAA Laboratories. Basic fibroblast growth factor and epidermal growth factor were purchased from PeproTech. Penicillin-streptomycin-glutamine mix, L-buthionine (S,R)-sulfoximine, (+)-alpha-tocopherol, decylubiquinone, and insulin from bovine pancreas were purchased from Sigma. Trolox (6-Hydroxy-2,5,7,8-tetramethylchromane-2-carboxylic acid) was obtained from Fluka. Idebenone was obtained from Chemo Iberica. Calcein AM was purchased from Anaspec. Cell culture medium was made by combining 125 ml M199 EBS, 50 ml Fetal Calf Serum, 100 U/ml penicillin, 100 microgram/ml streptomycin, 2 mM glutamine, 10 microgram/ml insulin, 10 ng/ml EGF, and 10 ng/ml bFGF; MEM EBS was added to make the volume up to 500 ml. A 10 mM BSO solution was prepared by dissolving 444 mg BSO in 200 ml of medium (Invitrogen, Carlsbad, Ca.) with subsequent filter-sterilization. During the course of the experiments, this solution was stored at +4° C. […]
In the case of `CCOC(=O)CCC(C)(O)CCC1=C(C)C(=O)C(C)=C(C)C1=O` (stereo not drawn), the EC50 was 0.275 µM.

Take `CC1=C(C)C(=O)C(CCC2(C)CCC(=O)O2)=C(C)C1=O` (stereo not drawn): the EC50 is 0.27 µM.

In the case of `CC1=C(C)C(=O)C(CCC(C)(O)CCC(N)=O)=C(C)C1=O` (stereo not drawn), the EC50 was 0.07 µM.

Broadly, the EC50 is the midpoint of the concentration-response curve.
